# In PMC4730870 (Journal of natural products, 2015):
# System: peritoneal macrophages
# Test: In vitro mammalian toxicity, MTT method
# Format: cell-based, BALB/c mice
# Settings: CC50 against macrophages/IC50 against amastigotes
smiles,measurement,value
"C=CCc1ccc(Oc2cc([C@H](O)C=C)cc(OC)c2O)c(OC)c1 [Compound 3, 1-[(7R)-Hydroxy-8-propenyl]-3-[3′-methoxy-1′-(8′-propenyl)-phenoxy]-4-hydroxy-5-methoxybenzene]",SI selectivity index (CC50 mammalian cells/IC50 Leishmania amastigotes),>2.9
